Measured values published in paper PMC6697720, “Saturation of acyl chains converts cardiolipin from an antagonist to an activator of Toll-like receptor-4” (Cellular and Molecular Life Sciences: CMLS, 2019).

Target: T1, murine TLR4, MD2, and CD14 (Mus musculus, UniProt Q9JHF9+Q9QUK6)
T1 construct: expressed in transfected cells; host or cells: HEK293 (ATCC CRL1573), transient transfection with jetPEI
T1 sequence (Q9QUK6 26-835): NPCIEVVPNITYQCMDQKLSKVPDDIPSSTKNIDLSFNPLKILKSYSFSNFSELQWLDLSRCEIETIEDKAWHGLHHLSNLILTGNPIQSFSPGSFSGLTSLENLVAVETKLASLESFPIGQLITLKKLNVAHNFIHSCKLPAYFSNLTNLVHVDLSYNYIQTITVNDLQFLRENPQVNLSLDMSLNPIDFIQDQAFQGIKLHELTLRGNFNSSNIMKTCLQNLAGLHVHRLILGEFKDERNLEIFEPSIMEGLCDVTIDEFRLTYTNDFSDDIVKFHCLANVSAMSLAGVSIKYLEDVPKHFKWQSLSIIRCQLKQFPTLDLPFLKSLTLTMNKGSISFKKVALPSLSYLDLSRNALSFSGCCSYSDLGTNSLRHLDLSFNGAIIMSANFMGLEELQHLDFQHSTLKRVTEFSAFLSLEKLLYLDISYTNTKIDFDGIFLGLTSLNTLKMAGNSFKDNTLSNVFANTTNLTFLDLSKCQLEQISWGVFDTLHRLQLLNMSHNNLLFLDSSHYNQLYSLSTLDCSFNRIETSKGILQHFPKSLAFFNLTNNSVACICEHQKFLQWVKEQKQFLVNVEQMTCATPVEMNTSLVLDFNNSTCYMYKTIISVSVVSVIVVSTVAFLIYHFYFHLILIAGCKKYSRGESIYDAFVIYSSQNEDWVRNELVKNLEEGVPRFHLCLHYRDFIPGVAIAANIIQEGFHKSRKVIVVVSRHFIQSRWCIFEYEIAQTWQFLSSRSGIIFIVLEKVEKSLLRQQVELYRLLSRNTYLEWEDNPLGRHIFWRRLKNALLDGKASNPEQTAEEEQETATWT
T1 sequence (Q9JHF9 19-160): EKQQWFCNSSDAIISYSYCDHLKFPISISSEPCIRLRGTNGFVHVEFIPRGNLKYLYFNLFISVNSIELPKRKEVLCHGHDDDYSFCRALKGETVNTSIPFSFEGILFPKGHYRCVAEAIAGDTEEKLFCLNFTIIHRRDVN
Assay: NF-κB luciferase reporter activation by CLs in HEK293 cells transfected with murine TLR4, MD2 and CD14
Assay type: cell-based
Conditions: 6 h incubation
Protocol: Cells were seeded at 4 × 10^4 cells/mL in 96-well plates (200 μL/well) and transiently transfected 4 days later. Expression vectors containing an NF-κB transcription reporter vector-encoding firefly luciferase (10 ng/well pNF-κB-luc from Clontech), and a constitutively active reporter vector-encoding Renilla luciferase (5 ng/well phRG-TK; Promega), together with empty vector (pcDNA3.1 from Invitrogen Cat. N. V79020) and cDNA encoding human membrane CD14 (3 ng/well) and human or murine TLR4 and MD2 (3 ng/well) were mixed with jetPEI (Polyplus transfection Cat.N. 101-10N) and incubated with cells according to the manufacturer’s instructions.
After treatment supernatants were discarded, cells were washed with PBS and lysed with passive lysis buffer (Promega Cat.N. E1941). Luciferase and Renilla activity on cell lysates were quantified on a BioTek Synergy HT microplate reader using home-made luciferase reagent (20 mM Tricine, 2.67 mM MgSO4·7H2O, 0.265 mM (MgCO3)4Mg(OH)2·5H2O, 0.1 mM EDTA, 33.3 mM DTT, 530 μM ATP, 270 μM Acetyl Coenzyme A (Lithium salt), 470 μM luciferin (Biosynth), pH 7.8, diluted two times in water before use), or coelenterazine (Biosynth) dissolved in ethanol at 1 mg/mL and diluted 500 times in PBS before use as previously described. […]

In the case of `CCCCCCCCCCCCCC(=O)OC[C@H](COP(=O)(O)OCC(O)COP(=O)(O)OC[C@@H](COC(=O)CCCCCCCCCCCCC)OC(=O)CCCCCCCCCCCCC)OC(=O)CCCCCCCCCCCCC` (stereo partly shown) [C14:0 CL], the “activation of murine TLR4 (NF-κB)” value is reported as “agonist”.
